{"source": "patent US9617244B2", "about": "“Antibacterial quinoline derivatives” (JANSSEN PHARMACEUTICA NV, priority 2012, dated 2017)", "key": {"[1]": {"system": "Staphylococcus aureus (ATCC29213)", "assay": "In-vitro anti-bacterial activity, microtitre plate assay, IC90 determination (non-mycobacterial strains)", "assay_type": "cell-based", "conditions": "90% inhibitory concentration for bacterial growth, resazurin fluorescence; for IC90 STA B29213: 24 hours", "procedure,_shortened": "(§1)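 Growth inhibition measured fluorometrically with resazurin (530/590 nm) after overnight 37 °C incubation under normal atmosphere. Bacteria added at roughly 100 TCID50 per well in Mueller-Hinton broth to five-fold compound dilution series; IC90 reported in μg/ml.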"}, "[2]": {"system": "Streptococcus pneumoniae (ATCC6305)", "assay": "In-vitro anti-bacterial activity, microtitre plate assay, IC90 determination (non-mycobacterial strains)", "assay_type": "cell-based", "conditions": "90% inhibitory concentration for bacterial growth, resazurin fluorescence; for IC90: Streptococcus pneumoniae, ATCC6305, 24 h, read-out: IC90 SPN 6305; for IC90 SPN 6305: 24 hours", "procedure,_shortened": "as §1"}, "[3]": {"system": "Mycobacterium smegmatis (ATCC607)", "assay": "In-vitro anti-bacterial activity against strain M. Smegmatis ATCC607", "assay_type": "cell-based", "conditions": "90% inhibitory concentration for bacterial growth, Alamar Blue fluorescence; for IC90 MSM 607: 48 hours", "procedure,_shortened": "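IC90 (μg/ml) derived from Alamar Blue fluorescence (530/590 nm) after 48 h growth at 37 °C under 5% CO2. About 250 CFU per well in Mueller-Hinton broth faced five-fold serial compound dilutions in BSA-containing wells.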"}}}
{"smiles": "COc1nc2ccc(Br)cc2cc1C(c1ccc(Cl)cc1)C1(O)CCNC(Cc2ccc(F)c(F)c2)C1", "note": "(stereo not drawn) [Compound 39]", "values": [{"measurement": "IC90", "setting": "[1]; Staphylococcus aureus, ATCC29213, 24 h, read-out: IC90 STA B29213", "value": 1.17, "unit": "µg/mL"}, {"measurement": "IC90", "setting": "[2]", "value": 5.24, "unit": "µg/mL"}, {"measurement": "IC90", "setting": "[3]; Mycolicibacterium smegmatis, ATCC607, 48 h, read-out: IC90 MSM 607", "value": 0.93, "unit": "µg/mL"}, {"measurement": "melting point", "value": 106, "unit": "°C"}]}
{"smiles": "COc1nc2ccc(S(C)(=O)=O)cc2cc1C(c1ccc(Cl)cc1)C1(O)CCNC(Cc2ccccc2)C1", "note": "(stereo not drawn) [Compound 38]", "values": [{"measurement": "IC90 STA B29213", "setting": "[1]", "value": 3.48, "unit": "µg/mL"}, {"measurement": "IC90", "setting": "[2]", "value": 6.94, "unit": "µg/mL"}, {"measurement": "IC90 MSM 607", "setting": "[3]", "value": 3.48, "unit": "µg/mL"}, {"measurement": "melting point", "value": 130, "unit": "°C"}]}
{"smiles": "COc1nc2ccc(-c3cccnc3)cc2cc1C(c1cccc(Cl)c1)C1(O)CCNC(Cc2ccccc2)C1", "note": "(stereo not drawn) [Compound 15]", "values": [{"measurement": "IC90 STA B29213", "setting": "[1]", "value": 1.74, "unit": "µg/mL"}, {"measurement": "IC90", "setting": "[2]", "value": 6.93, "unit": "µg/mL"}, {"measurement": "IC90 MSM 607", "setting": "[3]", "value": 1.38, "unit": "µg/mL"}, {"measurement": "melting point", "value": 220, "unit": "°C"}]}
{"smiles": "COc1nc2ccc(Br)cc2cc1C(c1ccc(C#N)cc1)C1(O)CCNC(Cc2ccccc2)C1", "note": "(stereo not drawn) [Compound 116]", "values": [{"measurement": "IC90 STA B29213", "setting": "[1]", "value": 3.42, "unit": "µg/mL"}, {"measurement": "IC90 SPN 6305", "setting": "[2]", "value": 6.83, "unit": "µg/mL"}, {"measurement": "IC90 MSM 607", "setting": "[3]", "value": 1.72, "unit": "µg/mL"}, {"measurement": "melting point", "value": 153, "unit": "°C"}]}
{"smiles": "COc1nc2ccc(Br)cc2cc1C(c1ccc(SC)cc1)C1(O)CCNC(Cc2ccccc2)C1", "note": "(stereo not drawn) [Compound 99]", "values": [{"measurement": "IC90 STA B29213", "setting": "[1]", "value": 1.78, "unit": "µg/mL"}, {"measurement": "IC90 SPN 6305", "setting": "[2]", "value": 6.32, "unit": "µg/mL"}, {"measurement": "IC90 MSM 607", "setting": "[3]", "value": 1.42, "unit": "µg/mL"}, {"measurement": "melting point", "value": 214, "unit": "°C"}]}
{"smiles": "COc1nc2ccc(SC)cc2cc1C(c1ccc(Cl)cc1)C1(O)CCNC(Cc2ccccc2)C1", "note": "(stereo not drawn) [Compound 92]", "values": [{"measurement": "IC90 STA B29213", "setting": "[1]", "value": 1.64, "unit": "µg/mL"}, {"measurement": "IC90 SPN 6305", "setting": "[2]", "value": 6.54, "unit": "µg/mL"}, {"measurement": "IC90 MSM 607", "setting": "[3]", "value": 1.64, "unit": "µg/mL"}, {"measurement": "melting point", "value": 114, "unit": "°C"}]}
